Ten molecules from patent US8263596B2, “Kinase inhibitors and method of treating cancer” (University Health Network, priority 2010, dated 2012) can be followed below.

SMILES strings stand for the structures. Like-named read-outs stand apart in the source and are kept apart here. Some results are limits rather than exact numbers.

The target of assay [1] is T1, human PLK4 (Homo sapiens, UniProt O00444).
T1 construct: amino terminal GST fusion of residues 1-391 of human PLK4; made in house; host or cells: E. coli
T1 sequence (O00444 1-391): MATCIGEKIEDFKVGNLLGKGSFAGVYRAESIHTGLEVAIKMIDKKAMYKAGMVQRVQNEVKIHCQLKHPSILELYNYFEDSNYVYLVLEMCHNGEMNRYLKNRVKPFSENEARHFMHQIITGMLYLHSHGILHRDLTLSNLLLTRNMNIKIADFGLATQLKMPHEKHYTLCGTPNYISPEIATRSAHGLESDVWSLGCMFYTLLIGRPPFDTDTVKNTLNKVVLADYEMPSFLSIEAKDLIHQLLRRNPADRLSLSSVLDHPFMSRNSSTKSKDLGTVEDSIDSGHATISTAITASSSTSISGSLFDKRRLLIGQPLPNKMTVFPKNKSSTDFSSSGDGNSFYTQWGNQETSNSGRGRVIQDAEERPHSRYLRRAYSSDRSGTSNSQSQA
Nature of the assay: PLK4 inhibition assay (indirect ELISA). It counts as biochemical. On the technique in general: An ELISA detects its analyte on a solid surface through an enzyme-linked reagent.
Experimental: PLK4 activity was measured using an indirect ELISA detection system. […] The colourimetric reaction was allowed to continue for 5 minutes, followed by addition of stop solution (0.5 N sulphuric acid), and quantified by detection at 450 nm with either a monochromatic or filter based plate reader (Molecular Devices M5 or Beckman DTX880, respectively).
Compounds were pre-incubated in the presence of enzyme for 15 minutes prior to addition of ATP and the activity remaining quantified using the above described activity assay. […] The IC50 value was determined using a non-linear 4 point logistic curve fit (XLfit4, IDBS) with the formula; (A+(B/(1+((x/C)^D)))), where A=background value, B=range, C=inflection point, D=curve fit parameter.

Assay [2] addresses T2, Aurora A (Homo sapiens, UniProt O14965).
T2 sequence (O14965 1-403): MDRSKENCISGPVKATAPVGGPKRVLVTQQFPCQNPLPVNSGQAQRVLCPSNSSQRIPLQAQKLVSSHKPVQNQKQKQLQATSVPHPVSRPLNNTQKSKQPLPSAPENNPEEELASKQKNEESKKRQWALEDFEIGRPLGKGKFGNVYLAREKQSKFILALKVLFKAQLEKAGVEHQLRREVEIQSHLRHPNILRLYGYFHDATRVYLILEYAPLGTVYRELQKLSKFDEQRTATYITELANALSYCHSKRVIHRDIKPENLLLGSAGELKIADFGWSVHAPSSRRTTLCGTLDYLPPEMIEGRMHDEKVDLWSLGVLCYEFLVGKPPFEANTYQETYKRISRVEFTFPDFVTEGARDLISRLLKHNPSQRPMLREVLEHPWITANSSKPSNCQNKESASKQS
Briefly: Aurora A inhibition assay (Z-Lyte). It counts as biochemical.

The target in assay [3] is Aurora B (Homo sapiens, UniProt Q96GD4). Briefly: Aurora B inhibition assay (Z-Lyte). The class given is biochemical. The note with it: read-out: IC50 Ranges Aurora B.
Chain of Aurora B (Q96GD4 whole entry): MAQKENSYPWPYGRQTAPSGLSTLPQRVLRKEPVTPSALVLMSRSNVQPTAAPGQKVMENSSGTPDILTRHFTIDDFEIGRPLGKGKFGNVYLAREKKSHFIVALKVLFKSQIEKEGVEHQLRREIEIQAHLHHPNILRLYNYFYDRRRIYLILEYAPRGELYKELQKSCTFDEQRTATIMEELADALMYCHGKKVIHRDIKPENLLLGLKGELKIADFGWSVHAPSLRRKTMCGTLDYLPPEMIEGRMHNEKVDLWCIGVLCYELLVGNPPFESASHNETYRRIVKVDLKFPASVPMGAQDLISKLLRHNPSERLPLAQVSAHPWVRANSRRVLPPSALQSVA
Experimental: Aurora B inhibition was determined using the Z-Lyte assay kit from Invitrogen. […] The % inhibition values were determined according to the manufacturer's directions and IC50 values were obtained using a non-linear 4 point logistic curve fit (XLfit4, IDBS)
Assay [4] relates to HUV-EC-C cells. Briefly: In vitro angiogenesis assay (tube formation). It counts as cell-based. The note with it: 4 hr. Here is the method:
Activity against these RTKs can result in antiangiogenic activity which is associated with slowed tumor growth and/or tumor regression. To measure the antiangiogenic effects of compounds of the invention, selected examples were tested in an angiogenesis assay as described below.
HUV-EC-C cells were obtained from the American Type Culture Collection (ATCC, CRL-1730), and were used at early passage for the assay. The in vitro Angiogenesis Assay Kit (Chemicon) was used according to the manufacturer's recommendation. An ice-cold mixture of ECMatrix was transferred into a precooled 96-well plate. After the matrix solution had solidified (>1 hr incubation at 37° C.), 8,000 cells were mixed with the appropriate inhibitor concentration (in 100 microlitres EGM-2) and plated into each well. The clinical antiangiogenic, Sutent was used as a positive control in comparison to a compound of the invention, A13. After incubation at 37° C. for 4 hr, tube formation was inspected. Two methods, pattern recognition and branch point counting, were used to quantify the progression of angiogenesis and expressed as a percentage of the control tube count (FIGS. 1 and 2).

Assay [5] addresses T3, FLT3 (Homo sapiens, UniProt P36888).
T3 construct: purchased Invitrogen PV3182
T3 sequence (P36888 27-993): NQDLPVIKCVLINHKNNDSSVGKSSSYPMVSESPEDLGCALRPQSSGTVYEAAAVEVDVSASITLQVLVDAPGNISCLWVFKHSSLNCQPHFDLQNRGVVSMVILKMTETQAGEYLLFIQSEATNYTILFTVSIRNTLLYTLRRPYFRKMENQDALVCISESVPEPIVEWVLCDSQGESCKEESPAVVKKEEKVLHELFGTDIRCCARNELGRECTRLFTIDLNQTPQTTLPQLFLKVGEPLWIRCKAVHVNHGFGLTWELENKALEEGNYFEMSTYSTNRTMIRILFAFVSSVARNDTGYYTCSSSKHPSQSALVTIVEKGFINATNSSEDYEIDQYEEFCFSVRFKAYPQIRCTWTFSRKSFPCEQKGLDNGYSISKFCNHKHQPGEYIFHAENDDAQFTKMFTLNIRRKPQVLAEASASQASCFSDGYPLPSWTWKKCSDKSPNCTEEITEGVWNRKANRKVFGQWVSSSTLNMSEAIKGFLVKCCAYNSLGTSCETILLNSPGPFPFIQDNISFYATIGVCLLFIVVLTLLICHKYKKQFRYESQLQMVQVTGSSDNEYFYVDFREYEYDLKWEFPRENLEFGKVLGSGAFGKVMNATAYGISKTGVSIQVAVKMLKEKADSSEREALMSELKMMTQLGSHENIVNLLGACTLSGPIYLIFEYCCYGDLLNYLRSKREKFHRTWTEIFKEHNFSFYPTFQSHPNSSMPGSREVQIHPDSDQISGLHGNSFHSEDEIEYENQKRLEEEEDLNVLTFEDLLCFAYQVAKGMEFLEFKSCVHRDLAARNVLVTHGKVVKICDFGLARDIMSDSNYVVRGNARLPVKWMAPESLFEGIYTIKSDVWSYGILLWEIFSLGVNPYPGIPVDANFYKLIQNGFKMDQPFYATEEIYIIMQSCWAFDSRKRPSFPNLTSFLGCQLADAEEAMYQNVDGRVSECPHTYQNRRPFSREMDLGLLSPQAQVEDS
Briefly: FLT3 inhibition assay (Z-Lyte). The following applies: read-out: IC50 Ranges Flt3. It counts as biochemical.
Experimental: The enzymatic activity of FLT3 was determined using the Z-Lyte assay kit from Invitrogen (Invitrogen cat #PV3191). […] The % inhibition values were determined according to the manufacturer's directions and IC50 values were obtained using a non-linear 4 point logistic curve fit (XLfit4, IDBS).

As a reminder, the IC50 is the concentration at which inhibition is half-maximal. In the case of `CN1CCN(c2ccc(-c3n[nH]c4cc([C@@H]5C[C@@]56C(=O)Nc5ccccc56)ccc34)cn2)CC1` (racemic) [Example A18, (1R*,2S*)-2-(3-(6-(4-Methylpiperazin-1-yl)pyridin-3-yl)-1H-indazol-6-yl)spiro[cyclopropane-1,3′-indolin]-2′-one], the values for the 50% inhibitory concentration (IC50) in assay [1], in assay [2] and in assay [3] were less than 100 nM, 100 to 1000 nM and less than 100 nM, respectively.
With `COc1ccc2c(c1)[C@]1(C[C@H]1c1ccc3c(-c4ccc(N5CCN(C)CC5)nc4)n[nH]c3c1)C(=O)N2` (relative stereo) [Example A13, (1R*,2S*)-5′-Methoxy-2-(3-(6-(4-methylpiperazin-1-yl)pyridin-3-yl)-1H-indazol-6-yl)spiro[cyclopropane-1,3′-indolin]-2′-one], the “antiangiogenic effect (tube formation)” value in assay [4] was “anti-agiogenic effects at submicromolar concentrations”.
Same read-out and setting: then `O=C1Nc2ccccc2[C@]12C[C@H]2c1ccc2c(/C=C/c3ccncc3)n[nH]c2c1` (relative stereo) [Example A22, (1R*,2S*)-(E)-2-(3-(2-(pyridin-4-yl)vinyl)-1H-indazol-6-yl)spiro-[cyclo-propane-1,3′-indolin]-2′-one], with “anti-agiogenic effects at submicromolar concentrations”; and `CN(C)Cc1ccc(/C=C/c2n[nH]c3cc([C@@H]4C[C@@]45C(=O)Nc4ccccc45)ccc23)cc1` (relative stereo) [Example A23, (1R*,2S*)-(E)-2-(3-(4-((dimethylamino)methyl)styryl)-1H-indazol-6-yl)spiro[cyclopropane-1,3′-indolin]-2′-one 2,2,2-trifluoroacetate], with “anti-agiogenic effects at submicromolar concentrations”.
In the case of `COc1ccc2c(c1)[C@]1(C[C@H]1c1ccc3c(-c4cccc(CN5CCOCC5)c4)n[nH]c3c1)C(=O)N2` (relative stereo) [Example A136, (1R*,2S*)-5′-methoxy-2-(3-(3-(morpholinomethyl)phenyl)-1H-indazol-6-yl)spiro[cyclopropane-1,3′-indolin]-2′-one 2,2,2-trifluoroacetate], the IC50 is less than 100 nM in assay [1] (read-out: IC50 Ranges PLK4), less than 100 nM in assay [3] and more than 1000 nM in assay [5].
The term inhibition denotes the drop in the measured response relative to a control, in per cent. Lower therefore signals a response near the control. In the case of `CCc1ccc2c(c1)[C@]1(C[C@H]1c1ccc3c(-c4ccc(N5CCN(C)CC5)cc4)n[nH]c3c1)C(=O)N2` (relative stereo) [Example A142, (1R*,2S*)-5′-ethyl-2-(3-(4-(4-methylpiperazin-1-yl)phenyl)-1H-indazol-6-yl)spiro[cyclopropane-1,3′-indolin]-2′-one 2,2,2-trifluoroacetate], in assay [2], the inhibition at 1 µM was less than 50%.
As for `COc1ccc2c(c1)[C@]1(C[C@H]1c1ccc3c(/C=C/c4ccc(C(=O)N5CCN(C)CC5)cc4)n[nH]c3c1)C(=O)N2` (relative stereo) [Example A179, (1R*,2S*)-(E)-5′-methoxy-2-(3-(4-(4-methylpiperazine-1-carbonyl)styryl)-1H-indazol-6-yl)spiro[cyclopropane-1,3′-indolin]-2′-one 2,2,2-trifluoroacetate], the IC50 in assay [1] (read-out: IC50 Ranges PLK4), in assay [2] and in assay [3] was less than 100 nM throughout.
For `COCCN1C(=O)[C@@]2(C[C@H]2c2ccc3c(/C=C/c4ccc(CN(C)C)cc4)n[nH]c3c2)c2ccccc21` (relative stereo) [Example A180, (1R*,2S*)-(E)-2-(3-(4-((dimethylamino)methyl)styryl)-1H-indazol-6-yl)-1′-(2-methoxyethyl)spiro[cyclopropane-1,3′-indolin]-2′-one 2,2,2-trifluoroacetate], the IC50 in assay [2] was less than 100 nM.
The molecule `COc1ccc2c(c1)[C@]1(C[C@H]1c1ccc3c(/C=C/c4cccc(CN5CCOCC5)c4)n[nH]c3c1)C(=O)N2` [Example A132, (1R,2S)-5′-methoxy-2-(3-(3-(morpholinomethyl)styryl)-1H-indazol-6-yl)spiro[cyclopropane-1,3′-indolin]-2′-one 2,2,2-trifluoroacetate] registered an IC50 in assay [2] of 100 to 1000 nM.
On the same count and under the same terms, then `COc1ccc2c(c1)[C@]1(C[C@H]1c1ccc3c(/C=C/c4cccc(CN(C)C)c4)n[nH]c3c1)C(=O)N2` [Example A134, (1R,2S)-2-(3-(3-((dimethylamino)methyl)styryl)-1H-indazol-6-yl)-5′-methoxyspiro[cyclopropane-1,3′-indolin]-2′-one 2,2,2-trifluoroacetate], with 100 to 1000 nM.
